Test results from patent publication US12077503B2, “Substituted cyclic amides and their use as herbicides” (FMC CORPORATION, priority 2015, dated 2024).

Columns and labels:
Type in all cases: in vivo
Kochia (Kochia scoparia) [1] = assay: Test A preemergence; settings: Bassia scoparia, pre-emergence, 240 h, preemergence, 0 to 100 scale where 0 is no effect and 100 is complete control, read-out: Kochia plant response rating; for pest or weed control at 125 g/ha: 125 g ai/ha, approx. 10 d; for pest or weed control at 500 g/ha: 500 g ai/ha
Summary of the method: (§1)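 Visual injury, scored on a 0–100 scale relative to untreated controls, was recorded about 10 d after application. Treatments were a preemergence soil spray over planted seeds or a postemergence spray on plants at the one- to two-leaf stage, 2 to 10 cm tall, all in loam soil–sand blend in the greenhouse.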

[2] = test system: barnyardgrass (Echinochloa crus-galli); assay: Test A preemergence; settings: Echinochloa crus-galli, pre-emergence, 240 h, preemergence, 0 to 100 scale where 0 is no effect and 100 is complete control, read-out: Barnyardgrass plant response rating; for pest or weed control at 125 g/ha: 125 g ai/ha, approx. 10 d; for pest or weed control at 500 g/ha: 500 g ai/ha
Summary of the method: as §1

[3] = test system: giant foxtail (Setaria faberii); assay: Test A preemergence; settings: Setaria faberi, pre-emergence, 240 h, preemergence, 0 to 100 scale where 0 is no effect and 100 is complete control, read-out: Foxtail, Giant plant response rating; for pest or weed control at 125 g/ha: 125 g ai/ha, approx. 10 d; for pest or weed control at 500 g/ha: 500 g ai/ha
Summary of the method: as §1

[4] = test system: pigweed (Amaranthus retroflexus); assay: Test A preemergence; settings: Amaranthus retroflexus, pre-emergence, 240 h, preemergence, 0 to 100 scale where 0 is no effect and 100 is complete control, read-out: Pigweed plant response rating; for pest or weed control at 125 g/ha: 125 g ai/ha, approx. 10 d; for pest or weed control at 500 g/ha: 500 g ai/ha
[5] = test system: ragweed (common ragweed, Ambrosia elatior); assay: Test A preemergence; settings: Ambrosia artemisiifolia, pre-emergence, 240 h, preemergence, 0 to 100 scale where 0 is no effect and 100 is complete control, read-out: Ragweed plant response rating; for pest or weed control at 125 g/ha: 125 g ai/ha, approx. 10 d; for pest or weed control at 500 g/ha: 500 g ai/ha
Summary of the method: as §1

[6] = test system: ryegrass, Italian (Italian ryegrass, Lolium multiflorum); assay: Test A preemergence; settings: Lolium multiflorum, pre-emergence, 240 h, preemergence, 0 to 100 scale where 0 is no effect and 100 is complete control, read-out: Ryegrass, Italian plant response rating; for pest or weed control at 125 g/ha: 125 g ai/ha, approx. 10 d; for pest or weed control at 500 g/ha: 500 g ai/ha
Summary of the method: as §1

[7] = test system: Galium (catchweed bedstraw, Galium aparine); assay: Test A postemergence; settings: Galium, post-emergence, 240 h, postemergence; for pest or weed control at 125 g/ha: 125 g ai/ha, visual injury vs untreated controls after approx. 10 d, 0 = no effect, 100 = complete control, read-out: Galium plant response rating (0 to 100 scale); for pest or weed control at 500 g/ha: 500 g ai/ha, 0 to 100 scale, 0 is no effect, 100 is complete control, read-out: Galium plant response rating
Summary of the method: as §1

Kochia (Kochia scoparia) [8] = assay: Test A postemergence; settings: Bassia scoparia, post-emergence, 240 h, postemergence; for pest or weed control at 125 g/ha: 125 g ai/ha, visual injury vs untreated controls after approx. 10 d, 0 = no effect, 100 = complete control, read-out: Kochia plant response rating (0 to 100 scale); for pest or weed control at 500 g/ha: 500 g ai/ha, 0 to 100 scale, 0 is no effect, 100 is complete control, read-out: Kochia plant response rating
Summary of the method: as §1

[9] = test system: barnyardgrass (Echinochloa crus-galli); assay: Test A postemergence; settings: Echinochloa crus-galli, post-emergence, 240 h, postemergence; for pest or weed control at 125 g/ha: 125 g ai/ha, visual injury vs untreated controls after approx. 10 d, 0 = no effect, 100 = complete control, read-out: Barnyardgrass plant response rating (0 to 100 scale); for pest or weed control at 500 g/ha: 500 g ai/ha, 0 to 100 scale, 0 is no effect, 100 is complete control, read-out: Barnyardgrass plant response rating
Summary of the method: as §1

[10] = test system: blackgrass (Alopecurus myosuroides); assay: Test A postemergence; settings: Alopecurus myosuroides, post-emergence, 240 h, postemergence; for pest or weed control at 125 g/ha: 125 g ai/ha, visual injury vs untreated controls after approx. 10 d, 0 = no effect, 100 = complete control, read-out: Blackgrass plant response rating (0 to 100 scale); for pest or weed control at 500 g/ha: 500 g ai/ha, 0 to 100 scale, 0 is no effect, 100 is complete control, read-out: Blackgrass plant response rating
Summary of the method: as §1

corn (Zea mays) = assay: Test A postemergence; settings: Zea mays, post-emergence, 240 h, postemergence; for plant injury at 125 g/ha: 125 g ai/ha, visual injury vs untreated controls after approx. 10 d, 0 = no effect, 100 = complete control, read-out: Corn plant response rating (0 to 100 scale); for plant injury at 500 g/ha: 500 g ai/ha, 0 to 100 scale, 0 is no effect, 100 is complete control, read-out: Corn plant response rating
Summary of the method: as §1

[11] = test system: giant foxtail (Setaria faberii); assay: Test A postemergence; settings: Setaria faberi, post-emergence, 240 h, postemergence; for pest or weed control at 125 g/ha: 125 g ai/ha, visual injury vs untreated controls after approx. 10 d, 0 = no effect, 100 = complete control, read-out: Foxtail, Giant plant response rating (0 to 100 scale); for pest or weed control at 500 g/ha: 500 g ai/ha, 0 to 100 scale, 0 is no effect, 100 is complete control, read-out: Foxtail, Giant plant response rating
Summary of the method: as §1

[12] = test system: pigweed (Amaranthus retroflexus); assay: Test A postemergence; settings: Amaranthus retroflexus, post-emergence, 240 h, postemergence; for pest or weed control at 125 g/ha: 125 g ai/ha, visual injury vs untreated controls after approx. 10 d, 0 = no effect, 100 = complete control, read-out: Pigweed plant response rating (0 to 100 scale); for pest or weed control at 500 g/ha: 500 g ai/ha, 0 to 100 scale, 0 is no effect, 100 is complete control, read-out: Pigweed plant response rating
Summary of the method: as §1

[13] = test system: ragweed (common ragweed, Ambrosia elatior); assay: Test A postemergence; settings: Ambrosia artemisiifolia, post-emergence, 240 h, postemergence; for pest or weed control at 125 g/ha: 125 g ai/ha, visual injury vs untreated controls after approx. 10 d, 0 = no effect, 100 = complete control, read-out: Ragweed plant response rating (0 to 100 scale); for pest or weed control at 500 g/ha: 500 g ai/ha, 0 to 100 scale, 0 is no effect, 100 is complete control, read-out: Ragweed plant response rating
Summary of the method: as §1

[14] = test system: ryegrass, Italian (Italian ryegrass, Lolium multiflorum); assay: Test A postemergence; settings: Lolium multiflorum, post-emergence, 240 h, postemergence; for pest or weed control at 125 g/ha: 125 g ai/ha, visual injury vs untreated controls after approx. 10 d, 0 = no effect, 100 = complete control, read-out: Ryegrass, Italian plant response rating (0 to 100 scale); for pest or weed control at 500 g/ha: 500 g ai/ha, 0 to 100 scale, 0 is no effect, 100 is complete control, read-out: Ryegrass, Italian plant response rating
Summary of the method: as §1

[15] = test system: wheat (Triticum aestivum); assay: Test A postemergence; settings: Triticum aestivum, post-emergence, 240 h, postemergence; for plant injury at 125 g/ha: 125 g ai/ha, visual injury vs untreated controls after approx. 10 d, 0 = no effect, 100 = complete control, read-out: Wheat plant response rating (0 to 100 scale); for plant injury at 500 g/ha: 500 g ai/ha, 0 to 100 scale, 0 is no effect, 100 is complete control, read-out: Wheat plant response rating
Summary of the method: as §1

`CCc1cc([C@H]2CNC(=O)[C@@H]2C(=O)Nc2cccc(F)c2F)cs1` [Compound 1155] was tested. Which pest or weed control at 125 g/ha (Kochia (Kochia scoparia) [1]) did it give?
The pest or weed control at 125 g/ha was 60%.

And the pest or weed control at 500 g/ha (Kochia (Kochia scoparia) [1])?
The pest or weed control at 500 g/ha was 90%.

And the pest or weed control at 125 g/ha [2]?
The pest or weed control at 125 g/ha was 90%.

And the pest or weed control at 500 g/ha [2]?
Its pest or weed control at 500 g/ha is 100%.

What about the pest or weed control at 125 g/ha [3] of the same compound?
Its pest or weed control at 125 g/ha is 70%.

And the pest or weed control at 500 g/ha [3]?
Its pest or weed control at 500 g/ha is 90%.

What about the pest or weed control at 125 g/ha [4] of the same compound?
The pest or weed control at 125 g/ha was 0%.

And the pest or weed control at 500 g/ha [4]?
Its pest or weed control at 500 g/ha is 30%.

What about the pest or weed control at 125 g/ha [5] of the same compound?
Its pest or weed control at 125 g/ha is 40%.

And the pest or weed control at 500 g/ha [5]?
Its pest or weed control at 500 g/ha is 80%.

What about the pest or weed control at 125 g/ha [6] of the same compound?
The pest or weed control at 125 g/ha was 0%.

And the pest or weed control at 500 g/ha [6]?
The pest or weed control at 500 g/ha was 30%.

What about the pest or weed control at 125 g/ha [7] of the same compound?
The pest or weed control at 125 g/ha was 40%.

What about the pest or weed control at 500 g/ha [7] of the same compound?
Its pest or weed control at 500 g/ha is 60%.

What about the pest or weed control at 125 g/ha (Kochia (Kochia scoparia) [8]) of the same compound?
The pest or weed control at 125 g/ha was 0%.

What about the pest or weed control at 500 g/ha (Kochia (Kochia scoparia) [8]) of the same compound?
The pest or weed control at 500 g/ha was 0%.

What about the pest or weed control at 125 g/ha [9] of the same compound?
The pest or weed control at 125 g/ha was 80%.

What about the pest or weed control at 500 g/ha [9] of the same compound?
The pest or weed control at 500 g/ha was 90%.

And the pest or weed control at 125 g/ha [10]?
The pest or weed control at 125 g/ha was 0%.

What about the pest or weed control at 500 g/ha [10] of the same compound?
Its pest or weed control at 500 g/ha is 0%.

What about the plant injury at 125 g/ha (corn (Zea mays)) of the same compound?
Its plant injury at 125 g/ha is 20%.

What about the plant injury at 500 g/ha (corn (Zea mays)) of the same compound?
The plant injury at 500 g/ha was 30%.

And the pest or weed control at 125 g/ha [11]?
The pest or weed control at 125 g/ha was 30%.

What about the pest or weed control at 500 g/ha [11] of the same compound?
Its pest or weed control at 500 g/ha is 70%.

What about the pest or weed control at 125 g/ha [12] of the same compound?
Its pest or weed control at 125 g/ha is 0%.

What about the pest or weed control at 500 g/ha [12] of the same compound?
Its pest or weed control at 500 g/ha is 0%.

And the pest or weed control at 125 g/ha [13]?
Its pest or weed control at 125 g/ha is 0%.

What about the pest or weed control at 500 g/ha [13] of the same compound?
Its pest or weed control at 500 g/ha is 40%.

What about the pest or weed control at 125 g/ha [14] of the same compound?
Its pest or weed control at 125 g/ha is 0%.

What about the pest or weed control at 500 g/ha [14] of the same compound?
The pest or weed control at 500 g/ha was 20%.

What about the plant injury at 125 g/ha [15] of the same compound?
Its plant injury at 125 g/ha is 20%.

What about the plant injury at 500 g/ha [15] of the same compound?
Its plant injury at 500 g/ha is 50%.

What does the source list for `CCc1cc([C@H]2CN(C)C(=O)[C@@H]2C(=O)Nc2cccc(F)c2F)cs1` [Compound 1157]?
pest or weed control at 125 g/ha (Kochia (Kochia scoparia) [1]): 90%; pest or weed control at 500 g/ha (Kochia (Kochia scoparia) [1]): 90%; pest or weed control at 125 g/ha [2]: 90%; pest or weed control at 500 g/ha [2]: 90%; pest or weed control at 125 g/ha [3]: 90%; pest or weed control at 500 g/ha [3]: 100%; pest or weed control at 125 g/ha [4]: 30%; pest or weed control at 500 g/ha [4]: 60%; pest or weed control at 125 g/ha [5]: 0%; pest or weed control at 500 g/ha [5]: 80%; pest or weed control at 125 g/ha [6]: 30%; pest or weed control at 500 g/ha [6]: 90%; pest or weed control at 125 g/ha [7]: 50%; pest or weed control at 500 g/ha [7]: 60%; pest or weed control at 125 g/ha (Kochia (Kochia scoparia) [8]): 0%; pest or weed control at 500 g/ha (Kochia (Kochia scoparia) [8]): 50%; pest or weed control at 125 g/ha [9]: 90%; pest or weed control at 500 g/ha [9]: 90%; pest or weed control at 125 g/ha [10]: 0%; pest or weed control at 500 g/ha [10]: 50%; plant injury at 125 g/ha (corn (Zea mays)): 40%; plant injury at 500 g/ha (corn (Zea mays)): 50%; pest or weed control at 125 g/ha [11]: 90%; pest or weed control at 500 g/ha [11]: 90%; pest or weed control at 125 g/ha [12]: 0%; pest or weed control at 500 g/ha [12]: 0%; pest or weed control at 125 g/ha [13]: 0%; pest or weed control at 500 g/ha [13]: 50%; pest or weed control at 125 g/ha [14]: 0%; pest or weed control at 500 g/ha [14]: 40%; plant injury at 125 g/ha [15]: 30%; plant injury at 500 g/ha [15]: 70%
